Data set [1] in a line: Solubility Analyses (Example 1): dissolution in water. In kind it is physicochemical.
The conditions of data set [2]: at 25° C., cited from earlier work.

Molecules are shown by their SMILES. Where two headings read alike, the source gives them in different places.

Regarding `COc1ccc2[nH]cc(CCNC(C)=O)c2c1` [melatonin], the figures for the dissolution in water entry in data set [1] (melatonin 1.2% (w/w) in the absence of caffeine) and in data set [1] (melatonin 2% (w/w) in the absence of caffeine) were “did not completely dissolve” and “did not dissolve completely”, respectively. Moreover, the solubility in water entry is “approximately 0.01 g/100 mL” in data set [2] and “approximately 0.01%” in data set [2] (same value given in percent).

The values above are taken from patent publication US20250381117A1 (MARY KAY INC., priority 2024, published 2025).
